Patent US20080171784A1, “Methods For the Stabilization of Atorvastatin” (ZENTIVA, A.S., priority 2003, published 2008)
Counter-ions that a name gives are not always drawn.

Experiments:
Type in all cases: physicochemical
[1] = Set of stress tests of atorvastatin (HPLC)
Protocol: The following experiments were carried out in order to determine the instability of atorvastatin. The purpose was to find out which factors lead to the degradation of the product. • 1. Set of stress tests. The stock solution of atorvastatin (2 ml) was gradually subjected to the following experiments: a. boil (24 hr) with 2 ml of 0.2 N hydrochloric acid, b. boil (24 hr) with 2 ml of 0.2 N acetic acid, c. boil (24 hr) with 2 ml of 0.2 N sodium hydroxide, d. boil (24 hr) with 2 ml of 4% hydrogen peroxide, e. boil (24 hr) with 2 ml of water, f. irradiation with UV radiation (5 hr), g. irradiation with visible light (24 hr), h. solid substance heated at 100° C. for 24 hr, i. solid substance subjected to UV radiation (5 hr), j. solid substance subjected to visible light (24 hr).

[2] = Oxidation of 1% atorvastatin solution in ethyl acetate-acetonitrile (1:1) at 40° C.
Protocol: In order to precisely determine the decomposition mechanism, the following experiments examining only the oxidative decomposition of atorvastatin were carried out. A recent publication/Pharmaceutical Development and Technology, 7(1), 1-32 (2002)/described a set of experiments which are suitable for the recognition of oxidation of substances and for the determination of its mechanism.
The following experiments were carried out:
a. oxidation of a 1% solution of atorvastatin in the system of ethyl acetate-acetonitrile (1:1) at 40° C. using a radical initiator (2,2′-azobiscyanopentanoic acid) at a pressure of 1 MPa of oxygen; b. oxidation of a 1% solution of atorvastatin in the system of ethyl acetate-acetonitrile (1:1) at 40° C. without a radical initiator; c. control experiment in the system of ethyl acetate-acetonitrile (1:1) at 40° C. using a radical initiator (2,2′-azobiscyanopentanoic acid) in an inert atmosphere of argon (the partial pressure of oxygen found as being about 1 kPa).

[3] = Example 7: test of stability under reduced pressure
Protocol: A pure amorphous atorvastatin substance was close din a tempered box under air pressure of 5.5-7.5 kPa. The partial pressure of oxygen was estimated as 1.2-1.5 kPa
The measurement has given the following results:
For comparison, sample 0010903/18 was kept in a thermostat at 80° C. under normal atmospheric pressure, i.e. partial pressure of oxygen about 18 kPa for 160 hours.

[4] = Stability tests of solid amorphous atorvastatin in different packages and oxygen partial pressures
Protocol: In order to make the carried-out experiments more precise, stability tests of solid amorphous atorvastatin and of several selected dosage forms were established. As to containers, polyethylene (PE) and an aluminium foil with a sealable PE layer (Al+PE) were used. Some of the stability data were determined in nitrogen atmosphere (N2) (with a partial pressure of oxygen of roughly 3 kPa).

[5] = Example 1: amorphous atorvastatin sealed in aluminium foil with oxygen absorbers, 80° C., 72 hr (HPLC)
Protocol: (§1) Amorphous atorvastatin (1 g) was sealed in a sealable aluminium foil together with the oxygen absorber Ageless® Z100 (Mitsubishi) or with the absorber of oxygen and carbon dioxide Ageless® E100 (Mitsubishi) and the sample was heated at 80° C. for 72 hr. The reference sample was prepared and heated in the same way without the use of absorbers.

[6] = Example 2: amorphous atorvastatin sealed in aluminium foil with oxygen absorbers, 40° C., 1.5 months (HPLC)
Protocol: as §1, with “40°” for “80°”, “1.5 months.” for “72 hr.”

[7] = 80° C., 72 hr, oxygen absorber Ageless Z100
[8] = 80° C., 72 hr, oxygen and carbon dioxide absorber Ageless E100
[9] = 80° C., 72 hr, reference sample without absorbers
[10] = 40° C., 1.5 months, oxygen absorber Ageless Z100
[11] = 40° C., 1.5 months, oxygen and carbon dioxide absorber Ageless E100
[12] = 40° C., 1.5 months, reference sample without absorbers

Compound: CC(C)c1c(C(=O)Nc2ccccc2)c(-c2ccccc2)c(-c2ccc(F)cc2)n1CC[C@@H](O)C[C@@H](O)CC(=O)O [atorvastatin, hemicalcium salt of (3R,5R) 7-[3-phenyl-4-phenylcarbamoyl-2-(4-fluorophenyl)-5-isopropylpyrrol-1-yl]-3,5-dihydroxyheptanoic acid]
- Content of Atorvastatin ([1]; 5 hr under UV in water): 64.3%
- Content of Atorvastatin ([1]; solid substance 5 hr, UV): 99.3%
- Content of Atorvastatin ([1]; solid substance 24 hr, 100° C.): 96.3%
- Content of Atorvastatin ([1]; solid substance 24 hr, visible light): 96.5%
- Content of Atorvastatin ([1]; solution, 24 hr in the light (visible)): 104.5%
- Content of Atorvastatin ([1]; stock solution, 24 hr boil in 0.1 N AcOH): 83.2%
- Content of Atorvastatin ([1]; stock solution, 24 hr boil in 0.1 N HCl): 2.1%
- Content of Atorvastatin ([1]; stock solution, 24 hr boil in 0.1 N NaOH): 72.0%
- Content of Atorvastatin ([1]; stock solution, 24 hr boil in 2% H2O2): 54.8%
- Content of Atorvastatin ([1]; stock solution, 24 hr boil in water): 88.4%
- Impurities ([2]; 0 hours, entry sample): 0.49%
- Impurities ([2]; 24 hours, radical initiator no, PO 1 MPa, 40° C.): 9.27%
- Impurities ([2]; 24 hours, radical initiator yes, PO 0.001 MPa (argon), 40° C.): 0.98%
- Impurities ([2]; 24 hours, radical initiator yes, PO 1 MPa, 40° C.): 6.42%
- Impurities ([2]; 48 hours, radical initiator yes, PO 0.001 MPa (argon), 40° C.): 1.38%
- Impurities ([2]; 48 hours, radical initiator yes, PO 1 MPa, 40° C.): 24.37%
- Impurities ([2]; 72 hours, radical initiator yes, PO 1 MPa, 40° C.): 30.93%

Compound: hemicalcium salt of (3R,5R) 7-[3-phenyl-4-phenylcarbamoyl-2-(4-fluorophenyl)-5-isopropylpyrrol-1-yl]-3,5-dihydroxyheptanoic acid [amorphous atorvastatin]
- Total Impurities ([3]; air pressure 5.5-7.5 kPa (PO 1.2-1.5 kPa), 55 hrs, 60-65 ° C.): 0.33%
- Total Impurities ([3]; air pressure 5.5-7.5 kPa (PO 1.2-1.5 kPa), 160 hrs, 80-82 ° C.): 0.37%
- Total Impurities ([3]; air pressure 5.5-7.5 kPa (PO 1.2-1.5 kPa), 23 days, 20-25 ° C.): 0.29%
- Total Impurities ([3]; air pressure 5.5-7.5 kPa (PO 1.2-1.5 kPa), 42 days, 40-42 ° C.): 0.35%
- Total Impurities ([3]; normal atmospheric pressure, PO about 18 kPa, 80° C., 160 hours): 1.92%
- Impurities ([4]; 0 months, entry): 0.21%
- Impurities ([4]; 3 months, 5 ° C., package 2x RE, PO 18 kPa): 0.39%
- Impurities ([4]; 3 months, 5 ° C., package PE + Al, PO 3 kPa (N2)): 0.34%
- Impurities ([4]; 3 months, 5 ° C., package PE + Al, PO 18 kPa): 0.34%
- Impurities ([4]; 3 months, 25 ° C., package 2x PE, PO 18 kPa): 0.77%
- Impurities ([4]; 3 months, 25 ° C., package PE + Al, PO 3 kPa (N2)): 0.43%
- Impurities ([4]; 3 months, 25 ° C., package PE + Al, PO 18 kPa): 0.63%
- Impurities ([4]; 6 months, 5 ° C., package 2x PE, PO 18 kPa): 0.83%
- Impurities ([4]; 6 months, 5 ° C., package PE + Al, PO 3 kPa (N2)): 0.44%
- Impurities ([4]; 6 months, 5 ° C., package PE + Al, PO 18 kPa): 0.71%
- Lactone of Atorvastatin [5, 7]: 0.19%
- Total Impurities [5, 7]: 0.64%
- Lactone of Atorvastatin [5, 8]: 0.14%
- Total Impurities [5, 8]: 0.60%
- Lactone of Atorvastatin [5, 9]: 0.33%
- Total Impurities [5, 9]: 1.32%
- Lactone of Atorvastatin ([5]; Initial): 0%
- Total Impurities ([5]; Initial): 0.49%
- Lactone of Atorvastatin [6, 10]: 0%
- Total Impurities [6, 10]: 0.36%
- Lactone of Atorvastatin [6, 11]: 0.06%
- Total Impurities [6, 11]: 0.46%
- Lactone of Atorvastatin [6, 12]: 0.22%
- Total Impurities [6, 12]: 1.55%
- Lactone of Atorvastatin ([6]; Initial): 0%
- Total Impurities ([6]; Initial): 0.49%
